In ChEMBL document CHEMBL1125962, “A new class of leukotriene biosynthesis inhibitors: The development of ((4-(4-chlorophenyl)-1-(4-(2-quinolinylmethoxy)phenyl)butyl)thio)acetic acid, L-674,636” (Bioorg Med Chem Lett, 1991):

Experiments:
[1] = Inhibition of leukotriene synthesis was assessed from inhibitory activity against human PMN.; assay type: functional
[2] = Compound was tested for bioavailability in squirrel monkey; assay type: ADME, organism-based, Saimiri sciureus; details: in vivo
[3] = organism: Rattus norvegicus; experiment: The effective dose was measured in antigen-induced dyspnea in inbred hyperreactive rats.; assay type: functional
[4] = Percentage blockade of ascaris-induced bronchoconstriction by the compound was determined at a dose of 1 mg/kg in conscious squirrel monkey; assay type: functional
[5] = organism: Rattus norvegicus; experiment: The effective dose was measured by using rat pleurisy assay.; assay type: functional
[6] = Compound was tested for bioavailability in rats; assay type: ADME, organism-based; details: rat, in vivo

| SMILES | IC50 [1] | further results |
| --- | --- | --- |
| O=C(O)CO/N=C(\CCCc1ccccc1)c1ccc(OCc2ccc3ccccc3n2)cc1 | 80 nM |  |
| CCCCCC(O)c1ccc(OCc2ccc3ccccc3n2)cc1 (stereo unspecified) | 90 nM |  |
| CCCCCC(O)c1cccc(OCc2ccc3ccccc3n2)c1 (stereo unspecified) [REV-5901] | 1800 nM |  |
| OC(CCCc1ccccc1)c1ccc(OCc2ccc3ccccc3n2)cc1 (stereo unspecified) | 30 nM |  |
| O=C(O)CSC(CCCc1ccc(Cl)cc1)c1ccc(OCc2ccc3ccccc3n2)cc1 (stereo unspecified) | 7 nM | bioavailability [2]: 93%; ED50 [3]: 0.035 mg/kg; Blockade [4]: 80%; ED50 [5]: 1.6 mg/kg; bioavailability [6]: 100% |
| O=C(O)CSC(CCCc1ccccc1)c1ccc(OCc2ccc3ccccc3n2)cc1 (stereo unspecified) [AZD-4769] | 3 nM |  |
